The source of these data is patent US9108944B2, “Androgen receptor modulators and uses thereof” (ARAGON PHARMACEUTICALS, INC., priority 2010, dated 2015).

pIC50: −log10 of the molar value.

For assay [1], the target named is T1, AR-VP16 (Homo sapiens, UniProt P10275).
T1 sequence (P10275 560-920 limits assumed): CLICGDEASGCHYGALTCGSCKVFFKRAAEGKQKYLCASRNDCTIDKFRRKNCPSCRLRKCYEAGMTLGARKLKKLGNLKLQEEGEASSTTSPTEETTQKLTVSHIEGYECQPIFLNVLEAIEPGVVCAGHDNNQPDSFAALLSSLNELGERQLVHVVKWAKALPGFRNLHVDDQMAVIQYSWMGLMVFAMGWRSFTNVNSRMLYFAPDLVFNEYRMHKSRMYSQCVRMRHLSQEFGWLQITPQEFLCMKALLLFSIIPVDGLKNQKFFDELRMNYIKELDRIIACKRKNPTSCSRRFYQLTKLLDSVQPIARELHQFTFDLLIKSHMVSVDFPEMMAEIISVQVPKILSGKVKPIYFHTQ
The assay can be described thus: AR-VP16 DNA Binding Assay, agonist mode (HepG2 cells). The class given is cell-based. The following applies: Emax >20x DMSO control = agonist.

For assay [2], the target named is T1, AR-VP16. The experiment in a line: AR-VP16 DNA Binding Assay, antagonist mode (HepG2 cells, 0.1 nM R1881). The class given is cell-based. The method, boiled down: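 HepG2 cells transiently transfected with AR-VP16 (Lipofectin), incubated overnight, then treated with compound in RPMI with charcoal-stripped serum. Antagonist mode adds R1881 at 0.1 nM final. Cells lysed after 48 h incubation for read-out.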

In the case of `Cc1ccc(CNC(=O)c2ccc(N3C(=S)N(c4cnc(C#N)c(C(F)(F)F)c4)C(=O)C34CCC4)cc2F)o1` [Compound 291, 4-(7-(6-Cyano-5-(trifluoromethyl)pyridin-3-yl)-8-oxo-6-thioxo-5,7-diazaspiro[3.4]octan-5-yl)-2-fluoro-N-((5-methylfuran-2-yl)methyl)benzamide], at AR-VP16 [1], the “ARVP16 DNA Binding Assay (Agonist mode): Agonist?” value (“ARVP16 DNA Binding Assay” below) is on record as “No (Agonist defined as a compound whose Emax in the ARVP16 DNA Binding Assay (Agonist mode) is >20x DMSO control)”. Moreover, at AR-VP16 [2], the pIC50 is over 6.00.
The matching figures for `N#Cc1ncc(N2C(=O)C3(CCC3)N(c3ccc(CCCC(=O)Nc4ccccc4)cc3)C2=S)cc1C(F)(F)F` [Compound 292, 4-(4-(7-(6-Cyano-5-(trifluoromethyl)pyridin-3-yl)-8-oxo-6-thioxo-5,7-diazaspiro[3.4]octan-5-yl)phenyl)-N-phenylbutanamide]: “No (Agonist defined as a compound whose Emax in the ARVP16 DNA Binding Assay (Agonist mode) is >20x DMSO control)” and under 6.00.
The matching figures for `Cc1cc(N2C(=O)C3(CCC3)N(c3ccc(C(=O)NCc4ccc(F)cc4)c(F)c3)C2=S)cnc1C#N` [Compound 293, 4-(7-(6-Cyano-5-methylpyridin-3-yl)-8-oxo-6-thioxo-5,7-diazaspiro[3.4]octan-5-yl)-2-fluoro-N-(4-fluorobenzyl)benzamide]: “No (Agonist defined as a compound whose Emax in the ARVP16 DNA Binding Assay (Agonist mode) is >20x DMSO control)” and over 6.00.
The matching figures for `Cc1cc(N2C(=O)C3(CCC3)N(c3ccc(C(=O)Nc4ccccc4Cl)c(F)c3)C2=S)cnc1C#N` [Compound 294, N-(2-Chlorophenyl)-4-(7-(6-cyano-5-methylpyridin-3-yl)-8-oxo-6-thioxo-5,7-diazaspiro[3.4]octan-5-yl)-2-fluorobenzamide]: “No (Agonist defined as a compound whose Emax in the ARVP16 DNA Binding Assay (Agonist mode) is >20x DMSO control)” and over 6.00.
As to `Cc1cc(N2C(=O)C3(CCC3)N(c3ccc(C(=O)Nc4cccc(Cl)c4)c(F)c3)C2=S)cnc1C#N` [Compound 295, N-(3-Chlorophenyl)-4-(7-(6-cyano-5-methylpyridin-3-yl)-8-oxo-6-thioxo-5,7-diazaspiro[3.4]octan-5-yl)-2-fluorobenzamide], on AR-VP16 [1], the “ARVP16 DNA Binding Assay” value is given as “No (Agonist defined as a compound whose Emax in the ARVP16 DNA Binding Assay (Agonist mode) is >20x DMSO control)”. The compound also gave a pIC50 on AR-VP16 [2] of over 6.00.
The matching figures for `Cc1cc(N2C(=O)C3(CCC3)N(c3ccc(C(=O)Nc4ccc(Cl)cc4)c(F)c3)C2=S)cnc1C#N` [Compound 296, N-(4-Chlorophenyl)-4-(7-(6-cyano-5-methylpyridin-3-yl)-8-oxo-6-thioxo-5,7-diazaspiro[3.4]octan-5-yl)-2-fluorobenzamide]: “No (Agonist defined as a compound whose Emax in the ARVP16 DNA Binding Assay (Agonist mode) is >20x DMSO control)” and over 6.00.
The matching figures for `Cc1cc(N2C(=O)C3(CCC3)N(c3ccc(C(=O)Nc4ccccc4F)c(F)c3)C2=S)cnc1C#N` [Compound 297, 4-(7-(6-Cyano-5-methylpyridin-3-yl)-8-oxo-6-thioxo-5,7-diazaspiro[3.4]octan-5-yl)-2-fluoro-N-(2-fluorophenyl)benzamide]: “No (Agonist defined as a compound whose Emax in the ARVP16 DNA Binding Assay (Agonist mode) is >20x DMSO control)” and over 6.00.
The matching figures for `Cc1cc(N2C(=O)C3(CCC3)N(c3ccc(C(=O)Nc4cccc(F)c4)c(F)c3)C2=S)cnc1C#N` [Compound 298, 4-(7-(6-Cyano-5-methylpyridin-3-yl)-8-oxo-6-thioxo-5,7-diazaspiro[3.4]octan-5-yl)-2-fluoro-N-(3-fluorophenyl)benzamide]: “No (Agonist defined as a compound whose Emax in the ARVP16 DNA Binding Assay (Agonist mode) is >20x DMSO control)” and over 6.00.
`Cc1cc(N2C(=O)C3(CCC3)N(c3ccc(C(=O)Nc4ccn(C)n4)c(F)c3)C2=S)cnc1C#N` [Compound 303, 4-(7-(6-Cyano-5-methylpyridin-3-yl)-8-oxo-6-thioxo-5,7-diazaspiro[3.4]octan-5-yl)-2-fluoro-N-(1-methyl-1H-pyrazol-3-yl)benzamide]: the “ARVP16 DNA Binding Assay” value on AR-VP16 [1] is recorded as “No (Agonist defined as a compound whose Emax in the ARVP16 DNA Binding Assay (Agonist mode) is >20x DMSO control)”. Besides, the pIC50 at AR-VP16 [2] was under 6.00.
The matching figures for `Cc1cc(N2C(=O)C3(CCC3)N(c3ccc(C(=O)Nc4cncc(F)c4)c(F)c3)C2=S)cnc1C#N` [Compound 305, 4-(7-(6-Cyano-5-methylpyridin-3-yl)-8-oxo-6-thioxo-5,7-diazaspiro[3.4]octan-5-yl)-2-fluoro-N-(5-fluoropyridin-3-yl)benzamide]: “No (Agonist defined as a compound whose Emax in the ARVP16 DNA Binding Assay (Agonist mode) is >20x DMSO control)” and over 6.00.
The matching figures for `N#Cc1ncc(N2C(=O)C3(CCC3)N(c3ccc(C(=O)NCCCO)c(F)c3)C2=S)cc1C(F)(F)F` [Compound 306, 4-(7-(6-cyano-5-(trifluoromethyl)pyridin-3-yl)-8-oxo-6-thioxo-5,7-diazaspiro[3.4]octan-5-yl)-2-fluoro-N-(3-hydroxypropyl)benzamide]: “No (Agonist defined as a compound whose Emax in the ARVP16 DNA Binding Assay (Agonist mode) is >20x DMSO control)” and over 6.00.
Regarding `CN(CCCNC(=O)c1ccc(N2C(=S)N(c3cnc(C#N)c(C(F)(F)F)c3)C(=O)C23CCC3)cc1F)C1CCCC1` [Compound 307, 4-(7-(6-Cyano-5-(trifluoromethyl)pyridin-3-yl)-8-oxo-6-thioxo-5,7-diazaspiro[3.4]octan-5-yl)-N-(3-(cyclopentyl(methyl)amino)propyl)-2-fluorobenzamide], on AR-VP16 [1], the “ARVP16 DNA Binding Assay” value is “No (Agonist defined as a compound whose Emax in the ARVP16 DNA Binding Assay (Agonist mode) is >20x DMSO control)”. Besides, the pIC50 on AR-VP16 [2] is over 6.00.
The matching figures for `N#Cc1ncc(N2C(=O)C3(CCC3)N(c3ccc(C(=O)NCCCN4CCCC4=O)c(F)c3)C2=S)cc1C(F)(F)F` [Compound 308, 4-(7-(6-Cyano-5-(trifluoromethyl)pyridin-3-yl)-8-oxo-6-thioxo-5,7-diazaspiro[3.4]octan-5-yl)-2-fluoro-N-(3-(2-oxopyrrolidin-1-yl)propyl)benzamide]: “No (Agonist defined as a compound whose Emax in the ARVP16 DNA Binding Assay (Agonist mode) is >20x DMSO control)” and over 6.00.
With `Cc1cc(N2C(=O)C3(CCC3)N(c3ccc(C(=O)NCC4CCOCC4)c(F)c3)C2=S)cnc1C#N` [Compound 311, 4-(7-(6-Cyano-5-methylpyridin-3-yl)-8-oxo-6-thioxo-5,7-diazaspiro[3.4]octan-5-yl)-2-fluoro-N-((tetrahydro-2H-pyran-4-yl)methyl)benzamide], the “ARVP16 DNA Binding Assay” value on AR-VP16 [1] is given as “No (Agonist defined as a compound whose Emax in the ARVP16 DNA Binding Assay (Agonist mode) is >20x DMSO control)”. The compound further gave a pIC50 on AR-VP16 [2] of under 6.00.
Take `N#Cc1ncc(N2C(=O)C3(CCC3)N(c3ccc(C(=O)NCCCN4CCC(F)(F)C4)c(F)c3)C2=S)cc1C(F)(F)F` [Compound 313, 4-(7-(6-Cyano-5-(trifluoromethyl)pyridin-3-yl)-8-oxo-6-thioxo-5,7-diazaspiro[3.4]octan-5-yl)-N-(3-(3,3-difluoropyrrolidin-1-yl)propyl)-2-fluorobenzamide]: the “ARVP16 DNA Binding Assay” value on AR-VP16 [1] was “No (Agonist defined as a compound whose Emax in the ARVP16 DNA Binding Assay (Agonist mode) is >20x DMSO control)”. Also, the pIC50 at AR-VP16 [2] is over 6.00.

By pIC50 is commonly meant −log10 of the IC50, conventionally taken in molar units. The low end stands for a high IC50, the high end for a low IC50.
